Molecules are shown by their SMILES.

This experiment relates to HCT 116 cells transfected with a luciferase reporter under the control of an HIF-responsive sequence. The experiment is described as follows: HIF-luciferase assay. In kind it is cell-based. As to conditions: Homo sapiens; HCT 116 HIF-luciferase reporter cells, hypoxia chamber (1% O2), 24 h; in some cases means of up to four individual determinations. The protocol: B-1. HIF-Luciferase Assay
HCT 116 cells were transfected in a stable manner with a plasmid which contained a luciferase reporter under the control of an HIF-responsive sequence. These cells were sown in microtitre plates [20000 cells/cavity in RPMI 1640 medium with 10% foetal calf serum (FCS) and 100 μg/ml of hygromycin]. Incubation was carried out overnight under standard conditions (5% CO2, 21% O2, 37° C., moistened). The following morning the cells were incubated with various concentrations of the test substances (0-10 μmol/l) in a hypoxia chamber (1% O2). After 24 h, Bright Glo reagent (Promega, Wisconsin, USA) was added in accordance with the manufacturer's instructions, and after 5 min the luminescence was measured. Cells which were incubated under normoxia served as background controls.
A general note: In a reporter assay the amount or activity of a reporter protein is the signal.
With `Cc1ccc(Cn2cc(-c3nc(-c4ccc(OC(F)(F)F)cc4)no3)ccc2=O)cc1` [Example 1, 1-(4-Methylbenzyl)-5-{3-[4-(trifluoromethoxy)phenyl]-1,2,4-oxadiazol-5-yl}pyridin-2(1H)-one], 45 nM corresponded to half-maximal inhibition (IC50). The figure for `Cc1ccc(Cn2cc(-c3nc(-c4ccc(C(C)(C)C(F)(F)F)cc4)no3)ccc2=O)cc1` [Example 2, 1-(4-Methylbenzyl)-5-{3-[4-(1,1,1-trifluoro-2-methylpropan-2-yl)phenyl]-1,2,4-oxadiazol-5-yl}pyridin-2(1H)-one] is 40 nM.

On to `CC(C)(c1ccc(-c2noc(-c3ccc(=O)n(Cc4ccc(Cl)cc4)c3)n2)cc1)C(F)(F)F` [Example 4, 1-(4-Chlorobenzyl)-5-{3-[4-(1,1,1-trifluoro-2-methylpropan-2-yl)phenyl]-1,2,4-oxadiazol-5-yl}pyridin-2(1H)-one], for which the IC50 (commonly the midpoint of a concentration-inhibition curve) amounted to 50 nM.

As to `Nc1ccc(Cn2cc(-c3nc(-c4ccc(OC(F)(F)F)cc4)no3)ccc2=O)cc1` [Example 7, 1-(4-Aminobenzyl)-5-{3-[4-(trifluoromethoxy)phenyl]-1,2,4-oxadiazol-5-yl}pyridin-2(1H)-one], half-maximal inhibition (IC50) was put at 20 nM. This IC50 is about 2.5-fold lower than that of the compound before.

Take `N#CC1CCN(c2cccc(Cn3cc(-c4nc(-c5ccc(OC(F)(F)F)cc5)no4)ccc3=O)c2)CC1` [Example 9, 1-(3-{[2-oxo-5-{3-[4-(trifluoromethoxy)phenyl]-1,2,4-oxadiazol-5-yl}pyridin-1(2H)-yl]methyl}phenyl)piperidine-4-carbonitrile]: the IC50 worked out at 1.5 nM. The figure for `N#CC1CCN(c2cccc(Cn3cc(-c4nc(-c5ccc(SC(F)(F)F)cc5)no4)ccc3=O)c2)CC1` [Example 10, 1-(3-{[2-oxo-5-(3-{4-[(trifluoromethyl)sulphanyl]phenyl}-1,2,4-oxadiazol-5-yl)pyridin-1(2H)-yl]methyl}phenyl)piperidine-4-carbonitrile] is 1 nM; for `CC(C)(c1ccc(-c2noc(-c3ccc(=O)n(Cc4cccc(N5CCC(C#N)CC5)c4)c3)n2)cc1)C(F)(F)F` [Example 11, 1-(3-{[2-oxo-5-{3-[4-(1,1,1-trifluoro-2-methylpropan-2-yl)phenyl]-1,2,4-oxadiazol-5-yl}pyridin-1(2H)-yl]methyl}phenyl)piperidine-4-carbonitrile] it is 2 nM.

In turn, `N#CC1CCN(c2cccc(Cn3cc(-c4nc(-c5ccc(C6(C(F)(F)F)CC6)cc5)no4)ccc3=O)c2)CC1` [Example 12, 1-(3-{[2-oxo-5-(3-{4-[1-(trifluoromethyl)cyclopropyl]phenyl}-1,2,4-oxadiazol-5-yl)pyridin-1(2H)-yl]methyl}phenyl)piperidine-4-carbonitrile] gave an IC50 of 1.5 nM. Take `O=c1ccc(-c2nc(-c3ccc(OC(F)(F)F)cc3)no2)cn1Cc1cccc(N2CC(O)C2)c1` [Example 13, 1-[3-(3-Hydroxyazetidin-1-yl)benzyl]-5-{3-[4-(trifluoromethoxy)phenyl]-1,2,4-oxadiazol-5-yl}pyridin-2(1H)-one]: half-maximal inhibition (IC50) was put at 2 nM. The IC50 values of the last two compounds are within 1.5-fold of each other. `O=c1ccc(-c2nc(-c3ccc(SC(F)(F)F)cc3)no2)cn1Cc1cccc(N2CC(O)C2)c1` [Example 14, 1-[3-(3-Hydroxyazetidin-1-yl)benzyl]-5-(3-{4-[(trifluoromethyl)sulphanyl]phenyl}-1,2,4-oxadiazol-5-yl)pyridin-2(1H)-one] displayed an IC50 of 2 nM.

Compound `CC(C)(c1ccc(-c2noc(-c3ccc(=O)n(Cc4cccc(N5CC(O)C5)c4)c3)n2)cc1)C(F)(F)F` [Example 15, 1-[3-(3-Hydroxyazetidin-1-yl)benzyl]-5-{3-[4-(1,1,1-trifluoro-2-methylpropan-2-yl)phenyl]-1,2,4-oxadiazol-5-yl}pyridin-2(1H)-one] gave an IC50 of 2 nM. In turn, `O=c1ccc(-c2nc(-c3ccc(C4(C(F)(F)F)CC4)cc3)no2)cn1Cc1cccc(N2CC(O)C2)c1` [Example 16, 1-[3-(3-Hydroxyazetidin-1-yl)benzyl]-5-(3-{4-[1-(trifluoromethyl)cyclopropyl]phenyl}-1,2,4-oxadiazol-5-yl)pyridin-2(1H)-one] returned an IC50 of 5 nM.

Turning to `COC(=O)c1cccc(Cn2cc(-c3nc(-c4ccc(C(C)(C)C(F)(F)F)cc4)no3)ccc2=O)c1` [Example 19, Methyl 3-{[2-oxo-5-{3-[4-(1,1,1-trifluoro-2-methylpropan-2-yl)phenyl]-1,2,4-oxadiazol-5-yl}pyridin-1(2H)-yl]methyl}benzoate], the IC50 turned out to be 30 nM.

As to `CNC(=O)c1cccc(Cn2cc(-c3nc(-c4ccc(C(C)(C)C(F)(F)F)cc4)no3)ccc2=O)c1` [Example 21, N-Methyl-3-{[2-oxo-5-{3-[4-(1,1,1-trifluoro-2-methylpropan-2-yl)phenyl]-1,2,4-oxadiazol-5-yl}pyridin-1(2H)-yl]methyl}benzamide], it took 30 nM to reach half-maximal inhibition (IC50). Regarding `CN(C)C(=O)c1cccc(Cn2cc(-c3nc(-c4ccc(OC(F)(F)F)cc4)no3)ccc2=O)c1` [Example 22, N,N-Dimethyl-3-{[2-oxo-5-{3-[4-(trifluoromethoxy)phenyl]-1,2,4-oxadiazol-5-yl}pyridin-1(2H)-yl]methyl}benzamide], the IC50 stood at 20 nM. The figure for `CN(C)C(=O)c1cccc(Cn2cc(-c3nc(-c4ccc(C(C)(C)C(F)(F)F)cc4)no3)ccc2=O)c1` [Example 23, N,N-Dimethyl-3-{[2-oxo-5-{3-[4-(1,1,1-trifluoro-2-methylpropan-2-yl)phenyl]-1,2,4-oxadiazol-5-yl}pyridin-1(2H)-yl]methyl}benzamide] is 15 nM. The figure for `CC(C)(c1ccc(-c2noc(-c3ccc(=O)n(Cc4cccc(C(=O)N5CCC5)c4)c3)n2)cc1)C(F)(F)F` [Example 25, 1-[3-(Azetidin-1-ylcarbonyl)benzyl]-5-{3-[4-(1,1,1-trifluoro-2-methylpropan-2-yl)phenyl]-1,2,4-oxadiazol-5-yl}pyridin-2(1H)-one] is 5 nM; for `CC(C)(c1ccc(-c2noc(-c3ccc(=O)n(Cc4cccc(C(=O)N5CC(O)C5)c4)c3)n2)cc1)C(F)(F)F` [Example 27, 1-{3-[(3-Hydroxyazetidin-1-yl)carbonyl]benzyl}-5-{3-[4-(1,1,1-trifluoro-2-methylpropan-2-yl)phenyl]-1,2,4-oxadiazol-5-yl}pyridin-2(1H)-one] it is 1 nM; for `O=C(c1cccc(Cn2cc(-c3nc(-c4ccc(OC(F)(F)F)cc4)no3)ccc2=O)c1)N1CCCC1` [Example 28, 1-[3-(Pyrrolidin-1-ylcarbonyl)benzyl]-5-{3-[4-(trifluoromethoxy)phenyl]-1,2,4-oxadiazol-5-yl}pyridin-2(1H)-one] it is 2 nM. For `O=C(c1cccc(Cn2cc(-c3nc(-c4ccc(OC(F)(F)F)cc4)no3)ccc2=O)c1)N1CCCO1` [Example 30, 1-[3-(1,2-Oxazolidin-2-ylcarbonyl)benzyl]-5-{3-[4-(trifluoromethoxy)phenyl]-1,2,4-oxadiazol-5-yl}pyridin-2(1H)-one] the value was 2 nM; for `O=C(c1cccc(Cn2cc(-c3nc(-c4ccc(OC(F)(F)F)cc4)no3)ccc2=O)c1)N1CCC(O)CC1` [Example 32, 1-{3-[(4-Hydroxypiperidin-1-yl)carbonyl]benzyl}-5-{3-[4-(trifluoromethoxy)phenyl]-1,2,4-oxadiazol-5-yl}pyridin-2(1H)-one], 2 nM. On to `CC(C)(c1ccc(-c2noc(-c3ccc(=O)n(Cc4cccc(C(=O)N5CCC(O)CC5)c4)c3)n2)cc1)C(F)(F)F` [Example 33, 1-{3-[(4-Hydroxypiperidin-1-yl)carbonyl]benzyl}-5-{3-[4-(1,1,1-trifluoro-2-methylpropan-2-yl)phenyl]-1,2,4-oxadiazol-5-yl}pyridin-2(1H)-one], for which the IC50 came to 6 nM.

The compound `O=C(c1cccc(Cn2cc(-c3nc(-c4ccc(OC(F)(F)F)cc4)no3)ccc2=O)c1)N1CCOCC1` [Example 34, 1-[3-(Morpholin-4-ylcarbonyl)benzyl]-5-{3-[4-(trifluoromethoxy)phenyl]-1,2,4-oxadiazol-5-yl}pyridin-2(1H)-one] had a 50% inhibitory concentration (IC50) of 4 nM. The compound `CC(C)(c1ccc(-c2noc(-c3ccc(=O)n(Cc4cccc(C(=O)N5CCOCC5)c4)c3)n2)cc1)C(F)(F)F` [Example 35, 1-[3-(Morpholin-4-ylcarbonyl)benzyl]-5-{3-[4-(1,1,1-trifluoro-2-methylpropan-2-yl)phenyl]-1,2,4-oxadiazol-5-yl}pyridin-2(1H)-one] showed an IC50 of 20 nM. Against the preceding compound, the IC50 is about 5-fold higher. The figure for `CN1CCN(C(=O)c2cccc(Cn3cc(-c4nc(-c5ccc(OC(F)(F)F)cc5)no4)ccc3=O)c2)CC1` [Example 36, 1-{3-[(4-Methylpiperazin-1-yl)carbonyl]benzyl}-5-{3-[4-(trifluoromethoxy)phenyl]-1,2,4-oxadiazol-5-yl}pyridin-2(1H)-one] is 5 nM; for `CN1CCN(C(=O)c2cccc(Cn3cc(-c4nc(-c5ccc(C(C)(C)C(F)(F)F)cc5)no4)ccc3=O)c2)CC1` [Example 37, 1-{3-[(4-Methylpiperazin-1-yl)carbonyl]benzyl}-5-{3-[4-(1,1,1-trifluoro-2-methylpropan-2-yl)phenyl]-1,2,4-oxadiazol-5-yl}pyridin-2(1H)-one] it is 10 nM.

On to `O=C(c1cccc(Cn2cc(-c3nc(-c4ccc(OC(F)(F)F)cc4)no3)ccc2=O)c1)N1CCN(C2CC2)CC1` [Example 38, 1-{3-[(4-Cyclopropylpiperazin-1-yl)carbonyl]benzyl}-5-{3-[4-(trifluoromethoxy)phenyl]-1,2,4-oxadiazol-5-yl}pyridin-2(1H)-one], for which 3 nM corresponded to half-maximal inhibition (IC50). For `CC(C)(c1ccc(-c2noc(-c3ccc(=O)n(Cc4cccc(C(=O)N5CCN(C6CC6)CC5)c4)c3)n2)cc1)C(F)(F)F` [Example 39, 1-{3-[(4-Cyclopropylpiperazin-1-yl)carbonyl]benzyl}-5-{3-[4-(1,1,1-trifluoro-2-methylpropan-2-yl)phenyl]-1,2,4-oxadiazol-5-yl}pyridin-2(1H)-one] the value was 5 nM.
